What all share (type): in vivo
Test [1] has as its system Puccinia recondita. The test can be described thus: Puccinia recondita, brown rust of wheat, curative test on wheat leaf segments. The note with it: foliar, 192 h, application rate 200 ppm, wheat leaf segments treated one day after inoculation, assessed 8 days after inoculation, 0=no control, 100%=complete control, read-out: curative fungicidal activity, percent efficacy relative to untreated infected control.

In the next test the test system is Botrytis cinerea. The test can be described thus: Botrytis cinerea, gray mould, preventative test on bean leaf disks. The note with it: application rate 200 ppm, assessed 3 days after inoculation, 0=no control, 100%=complete control. As to the method: Botrytis cinerea: Gray Mould, Preventative Test Botrytis cinerea (Gray mould): Bean leaf disks are placed on agar in multiwell plates (24-well format) and sprayed with the formulated (2% Dimethylsulfoxid, 0,025% Tween 20) test solutions. After drying, the leaf disks are inoculated with a spore suspension of the fungus (60′000 conidia/ml). After appropriate incubation, the preventive fungicidal activity of a compound is assessed 3 days after inoculation as disease damage on the leaf disks and calculated as percent efficacy relative to untreated infected control. (0=no control of Botrytis cinerea, 100%=complete control). In this test, compounds listed in Table P above show good activity.

For test [2], the system named is Erysiphe graminis f.sp. tritici. The test can be described thus: Erysiphe graminis f.sp. tritici, wheat powdery mildew, preventative test on wheat leaf segments. The conditions noted are these: Blumeria graminis, foliar, 168 h, application rate 200 ppm, assessed 7 days after inoculation, 0=no control, 100%=complete control, read-out: preventive fungicidal activity, percent efficacy relative to untreated infected control. As to the method:
Erysiphe graminis f.sp. tritici: Wheat Powdery Mildew, Preventative Test Erysiphe graminis f.sp. tritici (Wheat powdery mildew): Wheat leaf segments are placed on agar in multiwell plates (24-well format) and sprayed with the formulated (2% Dimethylsulfoxid, 0,025% Tween 20) test solutions. After drying, the leaf disks are inoculated with spores of the fungus (50 conidia/mm2). After appropriate incubation, the preventive fungicidal activity of a compound is assessed 7 days after inoculation as disease damage on the leaf disks and calculated as percent efficacy relative to untreated infected control. (0=no control of Erysiphe graminis f.sp. tritici, 100%=complete control). In this test, compounds listed in Table P above show good activity.

The test system of test [3] is Puccinia recondita. Kind of test: Puccinia recondita, brown rust of wheat, preventative test on wheat leaf segments. The note with it: foliar, 192 h, application rate 200 ppm, assessed 8 days after inoculation, 0=no control, 100%=complete control, read-out: preventive fungicidal activity, percent efficacy relative to untreated infected control. As to the method: Puccinia recondite: Brown Rust of Wheat, Preventative Test Puccinia recondita (Brown rust): Wheat leaf segments are placed on agar in multiwell plates (24-well format) and sprayed with the formulated (2% Dimethylsulfoxid, 0,025% Tween 20) test solutions. After drying, the leaf disks are inoculated with a spore suspension of the fungus (45'000 conidia/ml). After appropriate incubation, the preventive fungicidal activity of a compound is assessed 8 days after inoculation as disease damage on the leaf disks and calculated as percent efficacy relative to untreated infected control (0=no control of Puccinia recondita, 100%=complete control). In this test, compounds listed in Table P above show good activity.

With `CCN(C)/C=N/c1cc(Br)c(Oc2ccc(Cl)c(C(F)(F)F)c2)nc1C` [P.29], the pest or weed control at 200 ppm (with Puccinia recondita [1]; in test [2]; in the test with Puccinia recondita [3]) was at least 50% throughout. Further, in the test with Botrytis cinerea, the “preventive fungicidal activity, percent efficacy relative to untreated infected control” value is “at least 50%”.

These data come from patent publication US8513286B2, “Iminipyridine derivatives and their uses as microbiocides” (Syngenta Crop Protection LLC, priority 2007, dated 2013).
